Assay results: patent US20230398124A1, “SEVEN-MEMBERED RING COMPOUNDS AND METHOD OF USE THEREOF” (Invea Therapeutics, Inc., priority 2022, published 2023)
“Also recorded” adds a separate entry of the source.

Tests used:
[1] = test system: Mdr2 knock out (Mdr2 KO) mice; conditions: 20 mg/kg i.p., vs untreated Mdr2 KO
Description: Mdr2 knock out (Mdr2 KO) mice are a genetic mouse model of PSC and display similar phenotypes to human PSC. Collagen content, ductular reaction and inflammation are elevated in Mdr2 knock out mice. Mdr2 KO mice also have enhanced mast cell (MC) presence. Total bile acid (TBA) content increases in Mdr2 knock out mice. Accumulation of chymase and tryptase positive mast cells (MC) in the liver was evaluated by immunohistochemistry.
(§1) Animal: 10-12 weeks old Mdr2 homozygous knockout (Mdr2 KO) mice were raised on FVB/NJ background. All mice were maintained in a temperature-controlled environment (20° C. to 22° C.) with 12:12-hour light/dark cycles and fed standard chow with access to drinking water ad libitum.

[2] = test system: Mdr2 knock out (Mdr2 KO) mice; assay: liver and serum total bile acid accumulation in Mdr2 KO mice, colorimetric assay; type: in vivo, mouse; conditions: 20 mg/kg i.p.
Description: as §1
Liver and serum bile acid accumulation was evaluated by using a colorimetric assay from Crystal Chem Inc (cat #80471). For Liver, total bile acid (TBA) was extracted from homogenized liver. For serum, (TBAs) were measured in serum by enzyme immunoassay (EIA). 3-alpha-hydroxysteroid dehydrogenase and Nicotinamide adenine dinucleotide (NAD) converted TBA into 3-keto steroids and NADH. The NADH reacts with nitroblue tetrazolium (NBT) to form a dye and this is measured at 540 nm absorbance.

[3] = test system: Mdr2 knock out (Mdr2 KO) mice; assay: quantitative real time PCR of mast cell, pro-fibrotic and biliary senescence markers in liver of Mdr2 KO mice; type: in vivo, mouse; conditions: for Timp2 expression (pro-fibrotic marker): Mdr2 KO = 3.41885191, p<0.0001
Description: as §1
Liver inflammation, fibrosis and biliary senescence was evaluated in liver sections by quantitative real time PCR for mast cell markers such as Mcpt1, Fcer1a, Tpsb2 (See FIG. 3) and pro-fibrotic markers such as Col1a1, Timp2 and Tgfb1, (See FIG. 8)_biliary senescence markers such as Cdkn2a, Cdkn2c, Tgfb1 & Gl1bl. (See FIG. 10). Liver tissue was lysed, and total RNA was isolated using trizol and fold change was calculated using ΔΔCt method.

[4] = test system: Mdr2 knock out (Mdr2 KO) mice; assay: liver staining in Mdr2 KO mice: collagen deposition (Fast Green/Sirius Red), hydroxyproline, F4/80, Desmin; type: in vivo, mouse; conditions: for portal tract F4/80 immunoreactivity (macrophage marker) / expression of desmin levels (cholangiocyte activation marker): vs untreated Mdr2 KO; for collagen deposition: Fast Green/Sirius Red staining
Description: Mdr2 knock out (Mdr2 KO) mice are a genetic mouse model of PSC and display similar phenotypes to human PSC. Collagen content, ductular reaction and inflammation are elevated in Mdr2 knock out mice. Mdr2 KO mice also have enhanced mast cell (MC) presence. Total bile acid (TBA) content increases in Mdr2 knock out mice. Accumulation of chymase and tryptase positive mast cells (MC) in the liver was evaluated by immunohistochemistry. Metabolic parameters such as Total Bile Acids (serum and liver), Ductular Reaction (CK-19), Hepatic Fibrosis (Fast Green Sirius Red staining), Collagen deposition, Hydroxyproline levels, Fibrotic Gene Markers, cholangiocyte Activation (Desmin), inflammation and mast cell products, (F4/80, which is a macrophage marker) and Senescence and SASP markers (TGF-β1, p21, p16) are measured to determine the effect of compound 1 in mouse model of hepatobiliary disease.
as §1
Fibrosis in liver was evaluated by quantitatively estimating collagen deposition with Fast green and Sirius red staining of formalin fixed paraffin-embedded liver sections ([…]). Hepatic fibrosis and collagen deposition is evaluated by quantitative Fast Green/Sirius Red staining. Macrophage accumulation was determined by staining for F4/80 antibody. (See FIG. 4) Cholangiocyte activation was analyzed by immunofluorescence for Desmin (See FIG. 5) and CK19 (marker for cholangiocytes). (See FIG. 9)

[5] = test system: DSS-induced colitis C57Bl/6N mice; assay: DSS-induced colitis mouse model (body weight loss, occult blood, stool consistency, DAI); type: in vivo; conditions: for DAI score: 20 mg/kg i.p. QD day 3 to 9, 0-4 scale, DSS vehicle 3 and above; for body weight loss (score) / occult blood score / rectal bleeding / stool consistency score / diarrhea: i.p. QD day 3 to 9, Compound 1 20 mg/kg, anti-TNF 15 mg/kg, observed 0-10 days
Description: Animal: For the DSS-induced acute model of experimental colitis, 8-week-old C57Bl/6N mice (weight between 17 and 20 grams, all females from Charles River Laboratories) were used. All mice were maintained in a temperature-controlled environment (20° C.±4° C.) with 12:12-hour light/dark cycles, relative humidity was maintained at 55%±10%, ventilation with 8-10 air changes per hour and fed standard chow with access to drinking water ad libitum.
Mice were treated with one oral cycles of 2.5% DSS (weight/volume) (DSS, molecular mass, 40 kDa; MP Biomedicals), characterized by 7 days of DSS exposure in drinking water, followed by 3 days of regular drinking water.
Administration of drugs: 3 days after starting DSS administration, mice were treated with testing drugs up to day 9, according to the experimental groups and the dose regimen described in table below. 0.5% (w/v) Hydroxypropyl cellulose was used as the vehicle.
From day 0 to 7, the animals received DSS in drinking water and the drugs were administered from day 3 to 9. Body weight and clinical observations such as diarrhea and bleeding from rectum were recorded daily post colitis induction until day 10.
Disease activity Index (DAI) and body weight loss were measured. Colitis severity was calculated using a disease activity index (DAI) score based on daily evaluation of body weight, stool consistency, and presence of blood in the stools, as determined using Hemoccult SENSA Cards (Beckman Coulter).
Grading of intestinal inflammation was determined according to the criteria proposed by Cooper et al (Cooper H S et al., Clinicopathologic study of dextran sulfate sodium experimental murine colitis. Lab Invest. 1993 August; 69(2):238-49, the DAI has been determined by scoring changes in variety of factors such as weight loss, stool consistency, and occult bleeding. The weight loss score ranges from 0 to 4, where zero signals no weight loss, score of 1 indicates the presence of 1-5% weight loss, a score of 2 signals the presence of 5-10% weight loss, a score of 3 signals the presence of 10-20% weight loss and a score of 4 represents greater than 20% weight loss. Likewise, the stool consistency score ranges from 0 to 4 with a score of zero representing normal stools, a score of 2 represents loose stools and a score of 4 represents diarrhea. The rectal bleeding is observed by scores ranging from 0 to 4, where a score of zero represents normal or no significant bleeding, a score of 2 indicates the presence of occult bleeding and a score of 4 indicates the presence of gross bleeding. A 5-point (0-4) DAI was obtained by calculating an average of body weight score, stool consistency and rectal bleeding.

`CCC[C@@H](NC(=O)N1C/C(=N/OCC)NC[C@H](Cc2cc(Cl)ccc2OC)C1=O)c1ccc(C(=O)O)c(N)c1` [Compound 1 monoacetic acid solvate, 2-amino-4-[(1R)-1-({[(3Z,6S)-6-(5-chloro-2-methoxybenzyl)-3-(ethoxyimino)-7-oxo-1,4-diazepan-1-yl]carbonyl}amino)butyl]benzoic acid monoacetic acid solvate] was tested, and the “level of inflammatory marker Tpbs2” value [1] was “significantly reduced”, the “level of inflammatory marker mMCP1” value [1] was “significantly reduced” and the “Liver total bile acid content” value ([2]; Mdr2 KO vehicle = 3.498252, p<0.0001) was 1.797 µM. For the same compound, the “serum bile acid content” value ([2]; Mdr2 KO vehicle = 62.04502, p<0.0001) was 26.24 µM, the “Tgfb1 expression (pro-fibrotic marker)” value ([3]; 10 mg/kg i.p., Mdr2 KO = 1.72254177, p=0.0138) was 1.133 fold change and the “Fcer1 expression (mast cell marker)” value ([3]; 10 mg/kg i.p., Mdr2 KO = 2.20989385, p=0.0058) was 1.532 fold change. For the same compound, the “Tpsb2 expression (mast cell marker)” value ([3]; 10 mg/kg i.p., Mdr2 KO = 2.21107066, p=0.8750) was 1.53 fold change, the “Mcpt1 expression (mast cell marker)” value ([3]; 10 mg/kg i.p., Mdr2 KO = 2.33385383, p=0.0237) was 0.8094 fold change and the “Col1a1 expression (pro-fibrotic marker)” value ([3]; 10 mg/kg i.p., Mdr2 KO = 3.28243911, p=0.0005) was 1.509 fold change. For the same compound, the “Timp2 expression (pro-fibrotic marker)” value ([3]; 10 mg/kg i.p.) was 1.539 fold change, the “Tgfb1 expression (pro-fibrotic marker)” value ([3]; 20 mg/kg i.p., Mdr2 KO = 1.72254177, p=0.0018) was 0.8986 fold change and the “Fcer1 expression (mast cell marker)” value ([3]; 20 mg/kg i.p., Mdr2 KO = 2.20989385, p<0.0001) was 0.8866 fold change. For the same compound, the “Tpsb2 expression (mast cell marker)” value ([3]; 20 mg/kg i.p., Mdr2 KO = 2.21107066, p=0.7774) was 1.341 fold change, the “Mcpt1 expression (mast cell marker)” value ([3]; 20 mg/kg i.p., Mdr2 KO = 2.33385383, p=0.0178) was 0.723 fold change and the “Col1a1 expression (pro-fibrotic marker)” value ([3]; 20 mg/kg i.p., Mdr2 KO = 3.28243911, p<0.0001) was 0.9248 fold change. The “Timp2 expression (pro-fibrotic marker)” value ([3]; 20 mg/kg i.p.) was 0.9494 fold change, the “Tgfb1 expression (senescence marker)” value ([3]; 20 mg/kg i.p., Mdr2 KO = 4.188847, p=0.0002) was 1.821 fold change and the “Glb1l expression (senescence marker)” value ([3]; 20 mg/kg i.p., Mdr2 KO = 13.02486, p=0.0001) was 3.319 fold change. For the same compound, the “Cdkn2c expression (senescence marker)” value ([3]; 20 mg/kg i.p., Mdr2 KO = 16.05029, p=0.0050) was 12.66 fold change, the “Cdkn2a expression (senescence marker)” value ([3]; 20 mg/kg i.p., Mdr2 KO = 21.49752, p<0.0001) was 3.739 fold change and the hydroxyproline accumulation ([4]; 10 mg/kg i.p., Mdr2 KO = 4.871969, p=0.6426) was 4.219. For the same compound, the hydroxyproline accumulation ([4]; 20 mg/kg i.p., Mdr2 KO = 4.871969, p=0.0078) was 2.972, the “portal tract F4/80 immunoreactivity (macrophage marker)” value ([4]; 20 mg/kg i.p.) was “decrease” and the collagen deposition [4] was “restricted”. For the same compound, the collagen deposition ([4]; listed as compound 1 monoacetic acid solvate) was “decrease”, the “expression of desmin levels (cholangiocyte activation marker)” value [4] was “decrease” and the DAI score [5] was “decrease”. For the same compound, the “body weight loss (score)” value [5] was “reduction in the body weight loss; also recorded: decrease”, the “occult blood score / rectal bleeding” value [5] was “reduction in bleeding; also recorded: decrease” and the “stool consistency score / diarrhea” value [5] was “reduction in diarrhea; also recorded: decrease”.
In the case of `CCC[C@@H](NC(=O)N1C/C(=N/OCC)NC[C@H](Cc2cc(Cl)ccc2OC)C1=O)c1ccc(C(=O)O)c(N)c1` [Compound 1, 2-amino-4-[(1R)-1-({[(3Z,6S)-6-(5-chloro-2-methoxybenzyl)-3-(ethoxyimino)-7-oxo-1,4-diazepan-1-yl]carbonyl}amino)butyl]benzoic acid], the “portal tract F4/80 immunoreactivity (macrophage marker)” value ([4]; 20 mg/kg i.p.) is reported as “reduces”, the “expression of desmin levels (cholangiocyte activation marker)” value [4] is reported as “reduction” and the colon length reduction ([5]; 20 mg/kg i.p. QD day 3 to 9) is reported as “significantly inhibits”. The DAI score ([5]; 20 mg/kg) was “significantly attenuated”, the DAI score ([5]; listed as compound 1, 20 mg/kg) was under 2 and the “body weight loss (score)” value [5] was “significantly attenuated”. The “occult blood score / rectal bleeding” value [5] was “significantly attenuated” and the “stool consistency score / diarrhea” value [5] was “significantly attenuated”.
